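A five-concentration, 48-hour dose response in 96-well plates underlies each endpoint, interpolated linearly between surrounding concentrations. TGI denotes the concentration required for complete inhibition of growth.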 Some results are limits rather than exact numbers.

The text below walks through data of PubChem BioAssay (NCI).

Test systems include 786-0 renal; COLO 205 colon; EKVX NSCLC; HCT-15 colon; HL-60(TB) leukemia; IGROV1 ovarian; KM12 colon; MOLT-4 leukemia; NCI-H522 lung; NCI/ADR-RES ovarian; OVCAR-4 ovarian; SF-268 CNS; SF-295 CNS; SK-OV-3 ovarian; SW-620 colon; T-47D breast; UACC-62 melanoma; NCI-H460 lung; UO-31 renal.
What all share (assay): inhibition of tumour cell growth, NCI panel, 48 h

As to `CC1(C)CNC(=O)C2(C=NC(C)(C)CNC(=O)C3(C=N1)CCCO3)CCCO2` (configuration not stated), the TGI in the experiment on 786-0 renal, in the experiment with COLO 205 colon, with EKVX NSCLC, with HCT-15 colon, with HL-60(TB) leukemia and in the experiment on IGROV1 ovarian was > 10 µM each time. Also, the TGI in the experiment with KM12 colon, in the experiment with MOLT-4 leukemia, with NCI-H522 lung, in the experiment with NCI/ADR-RES ovarian, in the experiment on OVCAR-4 ovarian and in the experiment on SF-268 CNS was > 10 µM in each case. For the same compound, the TGI in the experiment on SF-295 CNS, in the experiment on SK-OV-3 ovarian, in the experiment with SW-620 colon, in the experiment on T-47D breast and in the experiment on UACC-62 melanoma was > 10 µM throughout.
For the compound `c1ccc(/C(=N/Nc2ccccn2)c2ncccn2)cc1`, the TGI was > 100 µM in the experiment on 786-0 renal; > 71.2 µM in the experiment on COLO 205 colon; 5.73 µM in the experiment with EKVX NSCLC; > 100 µM with HCT-15 colon; > 100 µM in the experiment on HL-60(TB) leukemia; > 21 µM with IGROV1 ovarian. Also, the TGI is > 53.8 µM in the experiment with KM12 colon; > 57.8 µM in the experiment on NCI-H460 lung; 0.679 µM in the experiment with NCI-H522 lung; 4.67 µM with NCI/ADR-RES ovarian; > 100 µM in the experiment on OVCAR-4 ovarian; 5.06 µM in the experiment on SF-268 CNS. Also, the TGI is > 44.6 µM with SF-295 CNS; > 28.7 µM in the experiment on SK-OV-3 ovarian; > 20.2 µM in the experiment with SW-620 colon; > 100 µM with T-47D breast; 12.2 µM in the experiment on UACC-62 melanoma; 6.27 µM in the experiment with UO-31 renal.
Consider `FC(F)(F)c1ccc2nc3n(c2c1)C(c1c(Cl)cccc1Cl)SC3` (configuration not stated), for which the TGI worked out at 28.4 µM with 786-0 renal; 28.6 µM in the experiment on EKVX NSCLC; 29.6 µM in the experiment with HCT-15 colon; 33.2 µM in the experiment on HL-60(TB) leukemia; 24.1 µM in the experiment with IGROV1 ovarian; 28.3 µM in the experiment with KM12 colon. The TGI with MOLT-4 leukemia was > 100 µM; in the experiment with NCI-H460 lung it was 35.6 µM; in the experiment with NCI-H522 lung, 29.7 µM; in the experiment on NCI/ADR-RES ovarian it was 25.7 µM; in the experiment on OVCAR-4 ovarian, 30.5 µM; in the experiment on SF-268 CNS, 41.8 µM. The TGI in the experiment with SF-295 CNS is 30.3 µM; in the experiment with SK-OV-3 ovarian, 27.9 µM; with SW-620 colon it was 34.9 µM; in the experiment on T-47D breast, 26.9 µM; in the experiment with UACC-62 melanoma, 28.6 µM; in the experiment with UO-31 renal it was 26.8 µM.
With `O=C1C=CC(=O)c2c(O)c(NCCc3ccc(O)cc3)c(Cl)c(O)c21`, the TGI with 786-0 renal, with COLO 205 colon, in the experiment with EKVX NSCLC, in the experiment with HCT-15 colon, with HL-60(TB) leukemia and with IGROV1 ovarian was > 10 µM in each case. The TGI in the experiment with KM12 colon, with MOLT-4 leukemia, in the experiment with NCI-H460 lung, in the experiment on NCI-H522 lung, in the experiment on NCI/ADR-RES ovarian and with OVCAR-4 ovarian was > 10 µM in each case. The TGI in the experiment on SF-268 CNS, in the experiment on SF-295 CNS, in the experiment on SK-OV-3 ovarian, in the experiment with SW-620 colon, with T-47D breast and with UACC-62 melanoma was > 10 µM in each case.
Take `COCC1OC(N2C(=O)NC(=O)[C@@H]3C=C4CCCCC4=C[C@@H]32)C(OC)C1OC` (some centres not stated): the TGI with 786-0 renal, in the experiment with EKVX NSCLC, with HCT-15 colon, in the experiment on HL-60(TB) leukemia, in the experiment on IGROV1 ovarian and in the experiment on KM12 colon was > 100 µM throughout. Besides, the TGI in the experiment with MOLT-4 leukemia, with NCI-H460 lung, in the experiment with NCI-H522 lung, in the experiment on NCI/ADR-RES ovarian, with OVCAR-4 ovarian and in the experiment on SF-268 CNS was > 100 µM throughout. For the same compound, the TGI in the experiment on SF-295 CNS, with SK-OV-3 ovarian, with SW-620 colon, with T-47D breast, in the experiment with UACC-62 melanoma and in the experiment with UO-31 renal was > 100 µM in each case.
Consider `COc1ccc2c(c1)CC1=C(O2)c2ccc(OC)cc2OC1`, for which the TGI was 50.8 µM in the experiment on 786-0 renal; 33.8 µM with COLO 205 colon; 52.5 µM in the experiment on EKVX NSCLC; 36.8 µM with HCT-15 colon; > 100 µM in the experiment with HL-60(TB) leukemia; > 100 µM in the experiment with IGROV1 ovarian. The TGI in the experiment on KM12 colon was > 100 µM; in the experiment with MOLT-4 leukemia, > 100 µM; in the experiment on NCI-H522 lung, 35.4 µM; in the experiment with NCI/ADR-RES ovarian, > 100 µM; in the experiment on OVCAR-4 ovarian, 90.1 µM; in the experiment with SF-268 CNS, 68.5 µM. Besides, the TGI with SF-295 CNS is > 100 µM; in the experiment with SK-OV-3 ovarian, > 100 µM; in the experiment on SW-620 colon it was 34.6 µM; in the experiment on T-47D breast it was 37.5 µM; with UACC-62 melanoma, 39.2 µM; in the experiment with UO-31 renal, > 100 µM.
As to `NC(=O)c1cc2ccccc2o/c1=N/O`, the TGI in the experiment on 786-0 renal, in the experiment with COLO 205 colon, with EKVX NSCLC, in the experiment with HCT-15 colon, in the experiment with HL-60(TB) leukemia and in the experiment with IGROV1 ovarian was > 100 µM throughout. Further, the TGI with KM12 colon, with MOLT-4 leukemia, with NCI-H460 lung, with NCI-H522 lung, with NCI/ADR-RES ovarian and with SF-268 CNS was > 100 µM each time. The TGI in the experiment with SF-295 CNS, in the experiment on SK-OV-3 ovarian, in the experiment with SW-620 colon, in the experiment with T-47D breast, with UACC-62 melanoma and in the experiment on UO-31 renal was > 100 µM throughout.
Turning to `O=[N+]([O-])c1ccc(NC(=S)N=Nc2c(O)[nH]c3ccc(Br)cc23)cc1`, the TGI was determined as 21.8 µM in the experiment on 786-0 renal; 56.5 µM in the experiment on COLO 205 colon; 12.9 µM in the experiment with HCT-15 colon; 7.09 µM in the experiment on HL-60(TB) leukemia; 18.3 µM in the experiment on IGROV1 ovarian; 22 µM in the experiment on KM12 colon. Also, the TGI in the experiment on MOLT-4 leukemia is > 100 µM; in the experiment on NCI-H460 lung, 21.2 µM; with NCI-H522 lung, 27.5 µM; in the experiment on NCI/ADR-RES ovarian, 6.13 µM; in the experiment with OVCAR-4 ovarian, 21.1 µM; with SF-268 CNS it was 26.1 µM. In addition, the TGI in the experiment with SF-295 CNS turned out to be 22 µM; with SK-OV-3 ovarian it was 28.9 µM; in the experiment on SW-620 colon, 30 µM; in the experiment on T-47D breast, 37.8 µM; with UACC-62 melanoma, 18.3 µM.
